Test results from PMC7266154 (RNA, 2020).

Tested on: protein synthesis in E. coli S30 extract
Format: biochemical, Escherichia coli
Settings: read-out: IC50, inhibition of firefly luciferase synthesis, 37°C, 30 min, luciferase activity, three independent measurements

IC50 | SMILES
190 ± 20 nM | CC[C@H]1OC(=O)[C@H](C)[C@@H](O[C@H]2C[C@@](C)(OC)[C@@H](O)[C@H](C)O2)[C@H](C)[C@@H](O[C@@H]2O[C@H](C)C[C@H](N(C)C)[C@H]2O)[C@](C)(O)C[C@@H](C)[C@@H]2N[C@@H](COCCOC)O[C@H]([C@H]2C)[C@]1(C)O [DIR, dirithromycin]
320 ± 20 nM | CC[C@H]1OC(=O)[C@H](C)[C@@H](O[C@H]2C[C@@](C)(OC)[C@@H](O)[C@H](C)O2)[C@H](C)[C@@H](O[C@@H]2O[C@H](C)C[C@H](N(C)C)[C@H]2O)[C@](C)(O)C[C@@H](C)C(=O)[C@H](C)[C@@H](O)[C@]1(C)O [ERY, erythromycin]
